In patent publication US5641758A, “Cytarabine derivatives, the preparation and use thereof” (priority 1994, dated 1997):
Where two headings read alike, the source gives them in different places.

Experiments:
[1] = tested on: K562; experiment: MTT dye reduction cytotoxicity assay, K562; format: cell-based; conditions: Homo sapiens
[2] = tested on: L1210 leukemia; experiment: Intravenous treatment of L1210 leukemia in BDF1 mice; format: in vivo, murine (female BDF1 mice); conditions: i.v.; for T/C, increase of lifespan: including 60d survivors; for Survivors 60 Days: survivors/group
[3] = tested on: CCRF-CEM; experiment: MTT dye reduction cytotoxicity assay, CCRF-CEM; format: cell-based; conditions: Homo sapiens
[4] = tested on: OVXF 1023; experiment: Human tumor xenograft in nude mice, i.p., ovary carcinoma OVXF 1023; format: in vivo; conditions: i.p. 150 mg/kg/day (MTD), days 1,4,7,10
Description: (§1) 6 to 8 week old nude mice of NMRI genetic background were used for all experiments. Tumors were implanted subcutaneously in both flanks of athymic nude mice. Treatment was started as soon as the tumors reached a median diameter of 6 mm, depending on the doubling time between day 12-42. Mice were randomly assigned to treatment groups and control group (5-6 mice per group bearing 6-12 evaluable tumors).
(§2) Tumor size was measured by two-dimensional measurement with calipers. The antitumor effect was evaluated following maximal tumor regression, in non-regressing tumors after 3-4 weeks. Relative tumor volume (RTV) values were calculated for each single tumor by dividing the tumor volume day×by the tumor volume day 0 at the time of randomization. Median RTV values were used for further evaluation.
(§3) Drug therapy was intraperitoneal on day 1,4,7 and 10. The dose of 150 mg/kg/day was considered to be the maximal tolerated dose resulting in a lethality of 14% in tumor-bearing nude mice.
(§4) Tumor growth inhibition was calculated according to relative tumor volume of control minus test divided by the control group. Furthermore the specific growth delay (SGD) was calculated with regard to the tumor doubling time (DT) by doubling time test group minus control divided by the doubling time of the control group.

[5] = tested on: CCRF-CEM (dcK)^-; experiment: MTT dye reduction cytotoxicity assay, CCRF-CEM deoxycytidine kinase deficient cell line; format: cell-based; conditions: Homo sapiens
[6] = tested on: L1210 leukemia; experiment: Oral treatment of L1210 leukemia in BDF1 mice, therapy on days 1-5; format: in vivo, murine (female BDF1 mice); conditions: for T/C, increase of lifespan: including 60 day survivors; for Survivors 60 Days: survivors/group
Description: The anti-tumor activity of the liposomal drug preparations was evaluated with the murine L1210 leukemia model in female BDF1 mice (Rubas et al., Int. J. Cancer, 37, 149-154 (1986)). The L1210 cells (1×10^5) from donor ascites were injected i.v.
Control groups of 5-6 mice received ara-C dissolved in phosphate buffer (PB). The animals were observed daily until death or 60 days. Increase in lifespan of the treated animals (T) was compared to that of the untreated controls (C), expressed as T/C in percentages. Animals surviving 60 days were included in the calculation and considered as being cured.

[7] = tested on: LXFL 529; experiment: Human tumor xenograft in nude mice, i.p., lung carcinoma LXFL 529; format: in vivo; conditions: LXFL 529, large cell; i.p. 150 mg/kg/day (MTD), days 1,4,7,10
Description: as §1, §2, §3, §4

[8] = tested on: HL-60; experiment: MTT dye reduction cytotoxicity assay, HL-60; format: cell-based; conditions: Homo sapiens
[9] = tested on: CCRF-CEM; experiment: Human tumor xenograft in nude mice, i.p., leukemia CCRF-CEM; format: in vivo; conditions: acute lymphatic leukemia, i.p. 150 mg/kg/day (MTD), days 1,4,7,10
Description: as §1, §2, §3, §4

[10] = tested on: LXFS 605; experiment: Human tumor xenograft in nude mice, i.p., lung carcinoma LXFS 605; format: in vivo; conditions: LXFS 605, small cell; i.p. 150 mg/kg/day (MTD), days 1,4,7,10
Description: as §1, §2, §3, §4

[11] = Toxicity (lethality, maximal tolerated dose) in tumor-bearing nude mice, i.p.; conditions: mouse, in vivo, ip
Description: as §1
Drug therapy was intraperitoneal on day 1,4,7 and 10.
Toxicity was assessed by lethality within 10 days after last therapy and body weight loss. The body weight of the nude mice was measured weekly, for rapidly growing tumor lines, measurements were done twice weekly.

[12] = tested on: MEXF 276; experiment: Human tumor xenograft in nude mice, i.p., melanoma MEXF 276; format: in vivo; conditions: MEXF 276, amelanotic; i.p. 150 mg/kg/day (MTD), days 1,4,7,10
Description: as §1, §2, §3, §4

[13] = tested on: MAXF 401; experiment: Human tumor xenograft in nude mice, i.p., mammary carcinoma MAXF 401; format: in vivo; conditions: MAXF 401, adenocarcinoma; i.p. 150 mg/kg/day (MTD), days 1,4,7,10
Description: as §1, §2, §3, §4

[14] = tested on: U937; experiment: MTT dye reduction cytotoxicity assay, U937; format: cell-based; conditions: Homo sapiens, U-937
[15] = tested on: PC3M; experiment: Human tumor xenograft in nude mice, i.p., prostate carcinoma PC3M; format: in vivo; conditions: adenocarcinoma, i.p. 150 mg/kg/day (MTD), days 1,4,7,10
Description: as §1, §2, §3, §4

[16] = tested on: HL-60; experiment: Human tumor xenograft in nude mice, i.p., leukemia HL-60; format: in vivo; conditions: HL-60, acute promyelocytic leukemia; i.p. 150 mg/kg/day (MTD), days 1,4,7,10
Description: as §1, §2, §3, §4

[17] = tested on: cytosine deaminase; conditions: in the body, in words; cited from earlier work
[18] = total dose 200 μmol/kg (49 mg/kg)

CCCCCCCCCCCCCCCCCCNc1ccn([C@@H]2O[C@H](CO)[C@@H](O)[C@@H]2O)c(=O)n1 [NOAC, 4-(1-octadecylamino)-1-β-D-arabinofuranosyl-2(1H)-pyrimidinone]
IC50 ([1]; K562, MTT assay, read-out: IC50): < 200 µM
effect compared with ara-C and N^4-hexadecyl-ara-C ([2]; results of Table 2, in words): superiority of NOAC over the prior art compounds, ara-C and N^4 -hexadecyl-ara-C
Survival Time, Mean ± SD ([2]; total dose 50 μmol/kg): 52.1 ± 19.2 days
T/C, increase of lifespan ([2]; total dose 50 μmol/kg): 744%
Survivors 60 Days ([2]; total dose 50 μmol/kg): 5/6
Survival Time, Mean ± SD ([2]; total dose 100 μmol/kg): 60 days
Survival Time, Range ([2]; total dose 100 μmol/kg): > 60 days
T/C, increase of lifespan ([2]; total dose 100 μmol/kg): 857%
Survivors 60 Days ([2]; total dose 100 μmol/kg): 6/6
IC50 ([3]; MTT assay, read-out: IC50): 50 µM
Growth inhibition [4]: 45%
IC50 [5]: < 140 µM
Survival Time, Mean ± SD ([6]; total dose 1 mmol/kg): 54 ± 15 days
T/C, increase of lifespan ([6]; total dose 1 mmol/kg): 673%
Survivors 60 Days ([6]; total dose 1 mmol/kg): 5/6
Survival Time, Mean ± SD ([6]; total dose 2 mmol/kg): 55 ± 12 days
T/C, increase of lifespan ([6]; total dose 2 mmol/kg): 689%
Survivors 60 Days ([6]; total dose 2 mmol/kg): 5/6
Growth inhibition [7]: 79%
IC50 ([8]; HL-60, MTT assay, read-out: IC50): < 50 µM
Growth inhibition [9]: 96%
Growth inhibition [10]: 73%
MTD ([11]; days 1,4,7 and 10, tumor-bearing nude mice): 150 mg/kg/day
mortality ([11]; 150 mg/kg/day i.p., tumor-bearing nude mice): 14%
Growth inhibition [12]: 39%
Growth inhibition [13]: 85%
IC50 ([14]; U937, MTT assay, read-out: IC50): < 100 µM
Growth inhibition [15]: 83%
Growth inhibition [16]: 97%

CCCCCCCCCCCCCCCCNc1ccn([C@@H]2O[C@H](CO)[C@@H](O)[C@@H]2O)c(=O)n1 [N^4 -Hexadecyl-ara-C, 4-(1-hexadecylamino)-1-β-D-arabinofuranosyl-2(1H)-pyrimidinone]
Survival Time, Mean ± SD ([2]; total dose 50 μmol/kg): 10.6 days
Survival Time, Range ([2]; total dose 50 μmol/kg): 10 to 11 days
Survivors 60 Days ([2]; total dose 50 μmol/kg): 0/5
Survival Time, Mean ± SD ([2]; total dose 100 μmol/kg): 12.0 days
Survival Time, Range ([2]; total dose 100 μmol/kg): 11 to 16 days
Survivors 60 Days ([2]; total dose 100 μmol/kg): 0/5

Nc1ccn([C@@H]2O[C@H](CO)[C@@H](O)[C@@H]2O)c(=O)n1 [ara-C, 4-amino-1-β-D-arabinofuranosyl-2(1H)-pyrimidinone, reference compound]
IC50 ([1]; K562): > 400 µM
Survival Time, Mean ± SD [2, 18]: 19.8 ± 19.7 days
T/C, increase of lifespan [2, 18]: 282%
Survivors 60 Days [2, 18]: 1/6
IC50 [3]: < 1 µM
deamination by cytosine deaminase [17]: rapidly undergoes deamination
Survival Time, Mean ± SD ([6]; total dose 2 mmol/kg): 13 ± 17 days
Survival Time, Range ([6]; total dose 2 mmol/kg): 10 to 52 days
T/C, increase of lifespan ([6]; total dose 2 mmol/kg): 221%
Survivors 60 Days ([6]; total dose 2 mmol/kg): 0/6
IC50 ([8]; HL-60): > 200 µM
IC50 [14]: > 200 µM
